Assays:
PDE type I = experiment: PDE Inhibiting Activity, type I; type: biochemical, dog (canine aorta); conditions: PDE type I from canine aorta, 1 μM substrate, pH 7.5; read-out: Inhibition Activity IC50, Type I
Method: (§1) On the basis of the method of Lugnier et al. (Biochem. Pharmacol., 35, 1743-1751, 1986), PDE was purified from the aorta in a dog. The canine aorta was minced and homogenized with a Waring Blender and a glass homogenizer in six volumes of a Tris-HCl buffer solution (pH 7.5, 20 mM) containing 2 mM magnesium acetate, 5 mM ethylenediaminetetraacetic acid (EDTA), 100 μg/mL of phenylmethylsulforyl fluoride and 15 mM 2-mercaptoethanol (2-ME), and centrifuged at 1200 xg for 30 min. The supernatant was separated and salted out with ammonium sulfate which was added to 45% saturation. The resulting precipitated fraction was resuspended in a Tris-HCl buffer solution (pH 7.5, 20 mM) containing 2 mM magnesium acetate and 1 mM 2-ME, dialyzed overnight and applied to a DEAE-trisacryl column (DEAE […] M:IBF). By elution with a sodium chloride gradient (0-0.4 M), PDE types V and III were separated from the other isozymes. The supernatant fraction of 45% saturated ammonium sulfate was further mixed with ammonium sulfate to 65% saturation and salted out. The resulting precipitated fraction was similarly applied to the DEAE-trisacryl column and eluted by a sodium chloride gradient (0-0.4 M) so as to separate PDE type I.
(§2) The thus obtained PDE types V, III and I were measured for their activity in accordance with the method of Thompson et al. (Adv. Cyclic Nucleotide Res., 10, 69-72, 1979) and the method of Wells et al. (Biochim. Biophys. Acta, 384, 430-443, 1975). Specifically, a purified PDE sample was added to 50 mM Tris-HCl buffer solution (pH 7.5) containing 1 μM of substrate cGMP or cAMP (containing tritium-labelled cGMP or cAMP), 1 mM EGTA and 2 mM magnesium acetate. For PDE activity measurement, enzymatically produced 5' GMP or 5' AMP was further hydrolyzed into guanosine or adenosine with snake venom and separated from the substrate by means of an ion-exchange resin (Dowex 1-X2), followed by measuring with a scintillation counter. The activity of each test compound was determined as a percentage of the DPE activity measured when it was added as a dimethyl sulfoxide solution (DMSO) and its IC50 (50% inhibition concentration) was calculated by the probit method. The final concentration of DMSO was adjusted to be no more than 2% in consideration of the effect on PDE activity.

PDE type III = molecular target: T1, PDE type III (Canis lupus familiaris, UniProt A0A8I3NYE0); experiment: PDE Inhibiting Activity, type III; type: biochemical, dog (canine aorta); conditions: PDE type III from canine aorta, 1 μM substrate, pH 7.5; read-out: Inhibition Activity IC50, Type III
T1 construct: PDE was purified from the aorta in a dog; from tissue; host or cells: dog aorta
T1 sequence (A0A8I3NYE0 1-1135): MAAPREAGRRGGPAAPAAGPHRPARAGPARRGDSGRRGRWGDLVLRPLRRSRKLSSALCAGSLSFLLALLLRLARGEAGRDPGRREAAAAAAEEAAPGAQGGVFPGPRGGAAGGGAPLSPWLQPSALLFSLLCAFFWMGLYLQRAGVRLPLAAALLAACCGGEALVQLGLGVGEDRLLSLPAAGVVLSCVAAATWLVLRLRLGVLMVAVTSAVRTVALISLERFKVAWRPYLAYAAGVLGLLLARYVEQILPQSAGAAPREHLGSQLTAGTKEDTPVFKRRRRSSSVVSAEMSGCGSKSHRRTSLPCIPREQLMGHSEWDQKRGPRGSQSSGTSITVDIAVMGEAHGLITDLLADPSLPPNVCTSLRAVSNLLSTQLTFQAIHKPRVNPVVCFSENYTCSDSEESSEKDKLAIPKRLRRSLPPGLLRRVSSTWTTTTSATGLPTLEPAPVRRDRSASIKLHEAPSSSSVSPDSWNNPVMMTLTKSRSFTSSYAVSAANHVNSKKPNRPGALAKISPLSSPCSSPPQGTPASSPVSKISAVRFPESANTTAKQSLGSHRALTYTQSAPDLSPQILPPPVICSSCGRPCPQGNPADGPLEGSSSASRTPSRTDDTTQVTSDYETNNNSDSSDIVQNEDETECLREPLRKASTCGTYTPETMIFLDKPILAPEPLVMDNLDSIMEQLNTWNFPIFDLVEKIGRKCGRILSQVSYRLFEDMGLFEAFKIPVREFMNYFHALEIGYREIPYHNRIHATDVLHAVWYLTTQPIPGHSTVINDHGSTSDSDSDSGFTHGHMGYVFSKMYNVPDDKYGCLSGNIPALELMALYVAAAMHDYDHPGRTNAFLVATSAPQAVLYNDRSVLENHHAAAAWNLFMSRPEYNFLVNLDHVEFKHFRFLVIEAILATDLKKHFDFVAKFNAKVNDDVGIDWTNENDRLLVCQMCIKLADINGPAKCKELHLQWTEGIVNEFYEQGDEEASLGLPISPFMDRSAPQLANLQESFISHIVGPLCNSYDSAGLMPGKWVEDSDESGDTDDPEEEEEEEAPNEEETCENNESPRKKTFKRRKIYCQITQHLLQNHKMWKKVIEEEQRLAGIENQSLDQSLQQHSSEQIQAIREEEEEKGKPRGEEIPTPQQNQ
Method: as §1, §2

Row | Compound | IC50 (PDE type I) | IC50 (PDE type III)
1 | O=c1ccn2c3ccc(Br)cc3c3cc(OCc4ccccc4)cc1c32 [Example 66] | > 30 µM | > 30 µM
2 | O=c1c(Cc2cccnc2)cn2c3ccc(Br)cc3c3cc(O)cc1c32 [Example 2, 10-bromo-2-hydroxy-5-(3-pyridylmethyl)-4H-pyrido [3,2,1-jk]carbazole-4-one] | > 30 µM | 3.6 µM
3 | O=c1c(Cc2ccccc2)cn2c3cc(Br)ccc3c3cc(O)cc1c32 [Example 122, 5-benzyl-9-bromo-2-hydroxy-4H-pyrido [3,2,1-jk]carbazole-4-one] | > 30 µM | 13 µM
4 | O=C(O)COc1cc2c(=O)c(Cc3cccnc3)cn3c4cc(Br)ccc4c(c1)c23 [Example 104, 9-bromo-2-carboxymethyloxy-5-(3-pyridylmethyl)-4H-pyrido [3,2,1-jk]carbazole-4-one] | > 30 µM | 3.5 µM
5 | CCCC(=O)COc1cc2c(=O)c(C)cn3c4ccc(Br)cc4c(c1)c23 [Example 57, 10-bromo-2-(2-oxopentyloxy)-5-methyl-4H-pyrido [3,2,1-jk]carbazole-4-one] | > 30 µM | > 30 µM
6 | O=c1ccn2c3ccc(Br)cc3c3cc(OCc4ncon4)cc1c32 [Example 76] | > 30 µM | > 30 µM
7 | Cc1cn2c3ccc(Br)cc3c3cc(O)cc(c1=O)c32 [Example 49, 10-bromo-2-hydroxy-5-methyl-4H-pyrido [3,2,1-jk]carbazole-4-one] | > 300 µM | 198 µM
8 | CC(=O)Oc1cc2c(=O)c(Cc3cccnc3)cn3c4ccccc4c(c1)c23 [Example 156] | > 30 µM | 5.6 µM
9 | Cc1cn2c3ccc(Br)cc3c3cc(OCC(=O)OC(C)C)cc(c1=O)c32 [Example 51] | > 30 µM | > 30 µM
10 | O=c1c(Cc2cccnc2)cn2c3cc(C(F)(F)F)ccc3c3cc(OCCCO)cc1c32 [Example 289, 2-(3-hydroxypropyloxy)-5-(3-pyridylmethyl)-9-trifluoromethyl-4H-pyrido[3,2,1-jk]carbazole-4-one] | > 30 µM | 2.5 µM
11 | CC(=O)Oc1cc2c(=O)ccn3c4ccc(Br)cc4c(c1)c23 [Example 82] | > 100 µM | > 100 µM
12 | Cc1cc2c(=O)ccn3c4ccc(Br)cc4c(c1)c23 [Example 277] | > 30 µM | > 30 µM
13 | CC(=O)OCc1cncc(COc2cc3c(=O)c(Cc4cccnc4)cn4c5cc(Br)ccc5c(c2)c34)c1 [Example 106, 2-(5-acetoxymethyl-3-pyridylmethyloxy)-9-bromo-5-(3-pyridylmethyl)-4H-pyrido [3,2,1-jk]carbazole-4-one] | > 30 µM | > 30 µM
14 | COc1cc2c(=O)c(Cc3ccccc3)cn3c4cc(Br)ccc4c(c1)c23 [Example 121, 5-benzyl-9-bromo-2-methoxy-4H-pyrido [3,2,1-jk]carbazole-4-one] | > 30 µM | > 30 µM
15 | CCCC(=O)COc1cc2c(=O)ccn3c4ccc(Br)cc4c(c1)c23 [Example 83, 10-bromo-2-(2-oxopentyloxy)-4H-pyrido [3,2,1-jk]carbazole-4-one] | > 30 µM | > 30 µM
16 | O=C(O)COc1cc2c(=O)ccn3c4ccc(Br)cc4c(c1)c23 [Example 63, 10-bromo-2-carboxymethyloxy-4H-pyrido [3,2,1-jk]carbazole-4-one] | > 30 µM | > 30 µM
17 | CCOC(=O)COc1cc2c(=O)c(Cc3cccnc3)cn3c4ccc(Br)cc4c(c1)c23 [Example 5, 10-bromo-2-ethoxycarbonylmethyloxy-5-(3-pyridylmethyl)-4H-pyrido [3,2,1-jk]carbazole-4-one] | > 30 µM | 19 µM
18 | O=c1ccn2c3ccc(Br)cc3c3cc(OCc4cccnc4)cc1c32 [Example 64, 10-bromo-2-(3-pyridylmethyloxy)-4H-pyrido [3,2,1-jk]carbazole-4-one] | > 100 µM | 81 µM
19 | O=c1c(Cc2cccnc2)cn2c3ccc(Br)cc3c3cc(OCc4cccnc4)cc1c32 [Example 18, 10-bromo-5-(3-pyridylmethyl)-2-(3-pyridylmethyloxy)-4H-pyrido [3,2,1-jk]carbazole-4-one] | > 30 µM | 1.9 µM
20 | O=c1c(Cc2cccnc2)cn2c3cc(Br)ccc3c3cc(OCc4cncc(CO)c4)cc1c32 [Example 107, 9-bromo-2-(5-hydroxymethyl-3-pyridylmethyloxy)-5-(3-pyridylmethyl)-4H-pyrido [3,2,1-jk]carbazole-4-one] | > 30 µM | > 30 µM
21 | CCOC(=O)COc1cc2c(=O)c(C)cn3c4ccc(Br)cc4c(c1)c23 [Example 52, 10-bromo-2-ethoxycarbonylmethyloxy-5-methyl-4H-pyrido [3,2,1-jk]carbazole-4-one] | > 30 µM | > 30 µM
22 | O=c1ccn2c3ccc(Br)cc3c3cc(O)cc1c32 [Example 59, 10-bromo-2-hydroxy-4H-pyrido [3,2,1-jk]carbazole-4-one] | > 100 µM | > 100 µM
23 | CC(=O)Oc1ccc2c3cccc4c(=O)c(Cc5cccnc5)cn(c2c1)c43 [Example 226] | > 30 µM | 12 µM
24 | CC(C)(C)OC(=O)COc1cc2c(=O)c(Cc3cccnc3)cn3c4cc(Br)ccc4c(c1)c23 [Example 103, 9-bromo-2-t-butoxycarbonyl-methyloxy-5-(3-pyridylmethyl)-4H-pyrido [3,2,1-jk]carbazole-4-one] | – | > 30 µM
25 | COc1cc2c(=O)ccn3c4ccc(Br)cc4c(c1)c23 [Example 58, 10-bromo-2-methoxy-4H-pyrido [3,2,1-jk]carbazole-4-one] | > 10 µM | > 10 µM
26 | COc1cc2c(=O)c(C)cn3c4ccc(Br)cc4c(c1)c23 [Example 48, 10-bromo-2-methoxy-5-methyl-4H-pyrido [3,2,1-jk]carbazole-4-one] | > 100 µM | > 100 µM
27 | CC(C)OC(=O)COc1cc2c(=O)c(Cc3cccnc3)cn3c4ccc(Br)cc4c(c1)c23 [Example 4, 10-bromo-2-i-propoxycarbonylmethyloxy-5-(3-pyridylmethyl)-4H-pyrido [3,2,1-jk]carbazole-4-one] | > 30 µM | 6.8 µM
28 | CCOC(=O)COc1cc2c(=O)c(Cc3cccnc3)cn3c4ccc(Cl)cc4c(c1)c23 [Example 245] | > 30 µM | 3.9 µM
29 | CC(C)OC(=O)COc1cc2c(=O)ccn3c4ccc(Br)cc4c(c1)c23 [Example 61, 10-bromo-2-i-propoxycarbonylmethyloxy-4H-pyrido [3,2,1-jk]carbazole-4-one] | > 30 µM | > 30 µM

Reference: patent publication US6197768A, “Pyridocarbazole derivatives having cgmp-pde inhibitory activity” (Mochida Pharmaceutical Co., Ltd., priority 1996, dated 2001)
